Source: publication PMC12332266 (Frontiers in Pharmacology, 2025)
Where two headings read alike, the source gives them in different places.

Tests used:
[1] = test system: hiPSC-CM (iCell Cardiomyocytes^2); test: Intracellular miRNA expression by RT-qPCR in hiPSC-CM pellets after 72-hour treatment
Experimental: (§1) Culture media change was performed every 2 days.
Total RNA was extracted from hiPSC-CM using the miRNeasy 96 Kit (Qiagen, Hilden, Germany) following the manufacturer’s recommendations. After the extraction, RNA purity was assessed by NanoDrop™ 8000 Spectrophotometer (Thermo Fisher Scientific Inc.). 5–10 ng/μL of RNA per sample were reverse transcribed and pre-amplified by using the TaqMan™ Advanced miRNA cDNA Synthesis Kit (Thermo Fisher Scientific Inc.). The synthesized cDNA was used for RT-qPCR with selected TaqMan™ assays (Thermo Fischer Scientific Inc.). RT-qPCR was carried out following the Applied Biosciences TaqMan miRNA expression assay protocol on a ViiA7 instrument (Thermo Fisher Scientific, Inc.). […] Therefore, to maximize the number of drugs and concentrations, explored in the same study, we pooled the triplicates for intracellular profiling of miRNAs. Therefore, no statistical analysis was performed on the data of miRNA profiling in the pellets of hiPSC-CM.
Following RTCA CardioECR assessment, hiPSC-CM cell pellets were collected, and total RNA was extracted and purified to investigate miRNAs upregulation by RT-qPCR. […] For the initial assessment of intracellular miRNAs in 12 different treatments, encompassing various drug classes, we used a panel of 17 miRNAs, which we selected from the publicly available data focusing mainly on in vitro models and structural cardiotoxicants (Supplementary Table S2).

[2] = ref extensive literature search, cited from earlier work
[3] = test system: hiPSC-CM (iCell Cardiomyocytes^2); test: RTCA CardioECR assessment (impedance and electrophysiology parameters)
Experimental: as §1
After seeding on fibronectin-coated xCELLigence ePlates (Agilent Technologies, Inc. Santa Clara, CA, USA), iCell^2 CM were monitored continuously through impedance electrodes. The following impedance parameters were measured: Cell Index (CI, measure of cell “health” and monolayer integrity), beating rate (BR) and amplitude (CI Amplitude, magnitude of contraction). Electrophysiology-like parameters (Field Potential Duration (FPD), considered as a surrogate for QT in in vivo studies, and Spike Amplitude (SA), depolarization induced by Na^+ channel opening) were measured starting from day 4–6, following the monolayer formation. […] All RTCA CardioECR data were double normalized (DMSO control and the baseline) with no further statistical group comparison for the normalized parameters. The variability of the data within the treatment groups was assessed by standard deviation.

[4] = hiPSC-CM, 72-hour treatment, lowest concentration causing at least 20% change from baseline
[5] = hiPSC-CM, 72-hour treatment, at least 20% change, Supplementary Table 1

## Cc1nc(Nc2ncc(C(=O)Nc3c(C)cccc3Cl)s2)cc(N2CCN(CCO)CC2)n1 [Dasatinib]
[1]
  miRNAs hiPSC-CM pellet, MEC overall: 0.3 µM
  miRNAs upregulated at the MEC overall (hiPSC-CM pellet): miR-96-5p, miR-133b, miR-182-5p, miR-185-3p, miR-365a-5p
[1]; 0.3 µM, 72 h
  hsa-miR-7-5p fold change, intracellular: 1.4
  hsa-miR-96-5p fold change, intracellular: 9.0
  hsa-miR-126-3p fold change, intracellular: 1.6
  hsa-miR-133b fold change, intracellular: 2.7
  hsa-miR-146b-5p fold change, intracellular: 0.8
  hsa-miR-182-5p fold change, intracellular: 2.5
  hsa-miR-185-3p fold change, intracellular: 6.4
  hsa-miR-187-3p fold change, intracellular: 1.7
  hsa-miR-208b-3p fold change, intracellular: 1.2
  hsa-miR-365a-5p fold change, intracellular: 5.4
  hsa-miR-[…] change, intracellular: 0.8
[1]; 1 µM, 72 h
  hsa-miR-7-5p fold change, intracellular: 0.8
  hsa-miR-29a-5p fold change, intracellular: 3.6
  hsa-miR-96-5p fold change, intracellular: 4.7
  hsa-miR-126-3p fold change, intracellular: 2.1
  hsa-miR-133b fold change, intracellular: 1.6
  hsa-miR-146b-5p fold change, intracellular: 0.9
  hsa-miR-182-5p fold change, intracellular: 0.9
  hsa-miR-185-3p fold change, intracellular: 1.5
  hsa-miR-187-3p fold change, intracellular: 0.5
  hsa-miR-208b-3p fold change, intracellular: 1.2
  hsa-miR-365a-5p fold change, intracellular: 0.8
  hsa-miR-[…] change, intracellular: 0.8
[1]; 3 µM, 72 h
  hsa-miR-7-5p fold change, intracellular: 0.9
  hsa-miR-29a-5p fold change, intracellular: 4.0
  hsa-miR-126-3p fold change, intracellular: 1.1
  hsa-miR-133b fold change, intracellular: 3.3
  hsa-miR-146b-5p fold change, intracellular: 6.4
  hsa-miR-182-5p fold change, intracellular: 0.8
  hsa-miR-185-3p fold change, intracellular: 7.9
  hsa-miR-187-3p fold change, intracellular: 1.4
  hsa-miR-208b-3p fold change, intracellular: 1.2
  hsa-miR-365a-5p fold change, intracellular: 0.7
  hsa-miR-[…] change, intracellular: 0.8
[1]; 10 µM, 72 h
  hsa-miR-7-5p fold change, intracellular: 0.5
  hsa-miR-29a-5p fold change, intracellular: 7.4
  hsa-miR-96-5p fold change, intracellular: 0.5
  hsa-miR-126-3p fold change, intracellular: 1.8
  hsa-miR-133b fold change, intracellular: 1.1
  hsa-miR-146b-5p fold change, intracellular: 0.4
  hsa-miR-182-5p fold change, intracellular: 0.4
  hsa-miR-185-3p fold change, intracellular: 3.3
  hsa-miR-187-3p fold change, intracellular: 0.6
  hsa-miR-208b-3p fold change, intracellular: 1.6
  hsa-miR-365a-5p fold change, intracellular: 3.9
  hsa-miR-[…] change, intracellular: 0.7
[2]; Supplementary Table 1
  Cmax total: 0.97 µM
[2]; Table 1
  Cmax total: 0.97 µM
[3]; [4]
  Cell index (CI) MEC: 1 µM
[3]; hiPSC-CM, change ≥20%, Table 2
  RTCA, MEC (CI): 1 µM
[3]; human, 72 h
  Beating Rate MEC: 0.3 µM
  Beating rate (BR) MEC: 0.3 µM
  Cell Index MEC: 1 µM
  Contractility Amplitude MEC: 10 µM
  RTCA, MEC (BR): 0.3 µM
  Spike Amplitude (SA) MEC: 0.3 µM

## CC(C)C[C@H](NC(=O)[C@H](CCc1ccccc1)NC(=O)CN1CCOCC1)C(=O)N[C@@H](Cc1ccccc1)C(=O)N[C@@H](CC(C)C)C(=O)[C@@]1(C)CO1 [Carfilzomib]
[1]; 0.3 µM, 72 h
  hsa-miR-7-5p fold change, intracellular: 8.1
  hsa-miR-29a-5p fold change, intracellular: 0.4
  hsa-miR-96-5p fold change, intracellular: 21.0
  hsa-miR-126-3p fold change, intracellular: 2.1
  hsa-miR-133b fold change, intracellular: 5.5
  hsa-miR-146b-5p fold change, intracellular: 0.3
  hsa-miR-182-5p fold change, intracellular: 12.6
  hsa-miR-185-3p fold change, intracellular: 1.1
  hsa-miR-187-3p fold change, intracellular: 0.7
  hsa-miR-208b-3p fold change, intracellular: 1.1
  hsa-miR-365a-5p fold change, intracellular: 0.2
[1]; 1 µM, 72 h
  hsa-miR-7-5p fold change, intracellular: 1.3
  hsa-miR-29a-5p fold change, intracellular: 1.4
  hsa-miR-96-5p fold change, intracellular: 5.6
  hsa-miR-126-3p fold change, intracellular: 0.9
  hsa-miR-133b fold change, intracellular: 0.3
  hsa-miR-146b-5p fold change, intracellular: 0.08
  hsa-miR-182-5p fold change, intracellular: 20.8
  hsa-miR-185-3p fold change, intracellular: 9.0
  hsa-miR-187-3p fold change, intracellular: 1.7
  hsa-miR-208b-3p fold change, intracellular: 1.0
  hsa-miR-365a-5p fold change, intracellular: 0.01
[1]; 3 µM, 72 h
  hsa-miR-7-5p fold change, intracellular: 2.3
  hsa-miR-96-5p fold change, intracellular: 10.7
  hsa-miR-126-3p fold change, intracellular: 0.5
  hsa-miR-133b fold change, intracellular: 0.4
  hsa-miR-146b-5p fold change, intracellular: 0.06
  hsa-miR-182-5p fold change, intracellular: 14.0
  hsa-miR-185-3p fold change, intracellular: 3.3
  hsa-miR-187-3p fold change, intracellular: 2.1
  hsa-miR-208b-3p fold change, intracellular: 1.0
  hsa-miR-365a-5p fold change, intracellular: 0.04
[1]; 10 µM, 72 h
  hsa-miR-7-5p fold change, intracellular: 3.8
  hsa-miR-29a-5p fold change, intracellular: 0.8
  hsa-miR-96-5p fold change, intracellular: 1.6
  hsa-miR-126-3p fold change, intracellular: 0.4
  hsa-miR-133b fold change, intracellular: 0.3
  hsa-miR-146b-5p fold change, intracellular: 0.01
  hsa-miR-182-5p fold change, intracellular: 5.7
  hsa-miR-185-3p fold change, intracellular: 0.2
  hsa-miR-187-3p fold change, intracellular: 20.5
  hsa-miR-208b-3p fold change, intracellular: 1.0
  hsa-miR-365a-5p fold change, intracellular: 0.02
[1]; fold change ≥2, 72 h
  miRNAs upregulated at the MEC overall (hiPSC-CM pellet): miR-126-3p, miR-133b, miR-182-5p, miR-184, miR-187-3p, miR-7-5p, miR-96-5p
[1]; lowest concentration tested which produced miRNA upregulation (fold change ≥2), 72 h
  miRNAs hiPSC-CM pellet, MEC overall: 0.3 µM
[2]; Supplementary Table 1
  Cmax total: 5.88 µM
[2]; Table 1
  Cmax total: 5.88 µM
[3]; hiPSC-CM, 72-hour treatment
  effect on BR at the lowest concentration tested: quiescence (beat stop)
[3]; hiPSC-CM, 72-hour treatment, at least 10% change
  Field Potential Duration MEC: 0.3 µM
[3]; hiPSC-CM, 72-hour treatment, at least 20% change
  Contractility Amplitude MEC: 0.3 µM
[3]; [5]
  Beating Rate MEC: 0.3 µM
  Cell Index MEC: 0.3 µM
[3]; hiPSC-CM, 72-hour treatment, at least 40% change
  Spike Amplitude (SA) MEC: 0.3 µM
[3]; [4]
  Beating rate (BR) MEC: 0.3 µM
  Cell index (CI) MEC: 0.3 µM
[3]; hiPSC-CM, change ≥20%, Table 2
  RTCA, MEC (BR): 0.3 µM (CI, BR (Q))
  RTCA, MEC (CI): 0.3 µM (CI, BR (Q))
